In brackets after ≈: the same amount, converted by molar mass. Activity calls are given as the source filed them. The calls are words filed in the database; no cut-off is given here.
Key:
[1] = tested on: Escherichia coli; assay: Antibacterial activity against Escherichia coli E38 harboring high NTR expression and H2S assessed as reduction in bacterial survival incubated for 16 hrs by spectrometric analysis; assay type: functional, organism-based
[2] = tested on: Escherichia coli; assay: Antibacterial activity against Escherichia coli E38 assessed as reduction in bacterial growth pre-triggered with nitroreductase and H2S for 1 hr followed by bacterial infection and measured after 16 hrs by spectrometer; assay type: functional; conditions: time 17 hrs
[3] = tested on: Escherichia coli; assay: Antibacterial activity against Escherichia coli E38 assessed as reduction in bacterial survival rate pre-triggered with NaSH for 1 hr followed by bacterial infection and measured after 16 hrs by spectrometer; assay type: functional, organism-based; conditions: time 17.0 hrs
[4] = tested on: Escherichia coli; assay: Antibacterial activity against Escherichia coli E38 assessed as reduction in bacterial growth pre-triggered with H2S for 1 hr followed by bacterial infection and measured after 16 hrs by spectrometer; assay type: functional; conditions: time 17 hrs
[5] = tested on: Escherichia coli; assay: Antibacterial activity against Escherichia coli E38 assessed as reduction in bacterial growth by measuring minimum inhibitory concentration incubated for 16 to 20 hrs by serial dilution method; assay type: functional; conditions: time 16-20 hrs
[6] = tested on: Escherichia coli; assay: Antibacterial activity against Escherichia coli E38 assessed as reduction in bacterial growth by measuring minimum bactericidal concentration incubated for 16 to 20 hrs by serial dilution method; assay type: functional; conditions: time 16-20 hrs
[7] = tested on: Escherichia coli; assay: Antibacterial activity against Escherichia coli E38 assessed as reduction in bacterial growth pre-triggered with nitroreductase for 1 hr followed by bacterial infection and measured after 16 hrs by spectrometer; assay type: functional; conditions: time 17 hrs
[8] = Prodrug activation in phosphate buffer saline assessed as Escherichia coli nitroreductase mediated ciprofloxacin metabolite formation measured upto 60 mins in presence of NADH by HPLC analysis; assay type: ADME; conditions: isolated protein, 1 h
[9] = tested on: Escherichia coli; assay: Antibacterial activity against Escherichia coli E38 infected in female Swiss Webster mouse skin abscess model assessed as reduction in bacterial load at 20 mg/kg, sc measured after 3 days; assay type: functional, organism-based; conditions: time 3.0 day
[10] = tested on: Escherichia coli; assay: Antibacterial activity against Escherichia coli E38 assessed as reduction in bacterial survival rate pre-triggered with nitroreductase and NaSH for 1 hr followed by bacterial infection and measured after 16 hrs by spectrometer; assay type: functional, organism-based; conditions: time 17.0 hrs
[11] = tested on: Escherichia coli; assay: Antibacterial activity against Escherichia coli E38 assessed as reduction in bacterial survival rate pre-triggered with nitroreductase for 1 hr followed by bacterial infection and measured after 16 hrs by spectrometer; assay type: functional, organism-based; conditions: time 17.0 hrs
[12] = tested on: Escherichia coli; assay: Antibacterial activity against Escherichia coli HB101 assessed as reduction in bacterial growth by measuring minimum bactericidal concentration incubated for 16 to 20 hrs by serial dilution method; assay type: functional; conditions: time 16-20 hrs
[13] = tested on: Escherichia coli; assay: Antibacterial activity against Escherichia coli HB101 assessed as reduction in bacterial growth by measuring minimum inhibitory concentration incubated for 16 to 20 hrs by serial dilution method; assay type: functional; conditions: time 16-20 hrs
[14] = tested on: Staphylococcus aureus; assay: Antibacterial activity against Staphylococcus aureus BB255 assessed as reduction in bacterial growth by measuring minimum bactericidal concentration incubated for 16 to 20 hrs by serial dilution method; assay type: functional; conditions: time 16-20 hrs
[15] = tested on: Escherichia coli; assay: Antibacterial activity against Escherichia coli E38 infected in female Swiss Webster mouse skin abscess model assessed as log reduction in bacterial load at 20 mg/kg, sc measured after 3 days relative to control; assay type: functional; conditions: time 3 day
[16] = Prodrug activation in phosphate buffer saline assessed as Escherichia coli nitroreductase mediated ciprofloxacin metabolite formation measured after 60 mins in presence of NADH by HPLC analysis; assay type: ADME; conditions: isolated protein, 1 h
[17] = Retention time of the compound by HPLC analysis; assay type: physicochemical
[18] = tested on: Staphylococcus aureus; assay: Antibacterial activity against Staphylococcus aureus BB255 assessed as reduction in bacterial growth by measuring minimum inhibitory concentration incubated for 16 to 20 hrs by serial dilution method; assay type: functional; conditions: time 16-20 hrs
[19] = Prodrug activation in phosphate buffer saline assessed as Escherichia coli nitroreductase mediated ciprofloxacin metabolite formation measured after 5 mins in presence of NADH by HPLC analysis; assay type: ADME; conditions: isolated protein
[20] = tested on: Escherichia coli; assay: Antibacterial activity against Escherichia coli E38 assessed as reduction in bacterial survival rate by measuring fold reduction in MIC pre-triggered with nitroreductase for 1 hr followed by bacterial infection and measured after 16 hrs by spectrometer; assay type: functional; conditions: time 17 hrs
[21] = Prodrug activation in phosphate buffer saline assessed as Escherichia coli nitroreductase mediated intermediate formation measured after 60 mins in presence of NADH and 10 ug/ml of NTR by HPLC analysis; conditions: isolated protein, 1 h
[22] = tested on: Escherichia coli; assay: Antibacterial activity against Escherichia coli HB101 at 0.5 to 2 times MIC measured after 30 days by broth microdilution method; assay type: functional, organism-based; conditions: time 30.0 day
[23] = Prodrug activation in phosphate buffer saline assessed as Escherichia coli nitroreductase mediated ciprofloxacin metabolite formation by measuring retention time measured after 180 mins in presence of NADH by HPLC analysis; assay type: ADME; conditions: isolated protein, 3 h
[24] = Prodrug activation in phosphate buffer saline assessed as Escherichia coli nitroreductase mediated ciprofloxacin metabolite formation measured after 120 mins in presence of NADH by HPLC analysis; assay type: ADME; conditions: isolated protein, 2 h
[25] = tested on: Escherichia coli; assay: Antibacterial activity against Escherichia coli E38 assessed as reduction in bacterial survival rate by measuring fold reduction in MIC pre-triggered with H2S for 1 hr followed by bacterial infection and measured after 16 hrs by spectrometer; assay type: functional; conditions: time 17 hrs
[26] = tested on: Escherichia coli; assay: Antibacterial activity against Escherichia coli HB101 at 0.5 to 2 times MIC measured after 27 days by broth microdilution method; assay type: functional, organism-based; conditions: time 27.0 day

Q: Which Activity [1] does the source give for `C[C@H](NC(=O)c1cn(C2CC2)c2cc(N3CCNCC3)c(F)cc2c1=O)c1ccc([N+](=O)[O-])cc1` here?
A: inactive

Q: What about the MIC [2] of the same compound?
A: 4 µg/mL (≈ 8.34 µM)

Q: What about the Activity [3] of the same compound?
A: inactive

Q: And the MIC [4]?
A: 4 µg/mL (≈ 8.34 µM)

Q: And the MIC [5]?
A: 4 µg/mL (≈ 8.34 µM)

Q: And the MBC [6]?
A: 4 µg/mL (≈ 8.34 µM)

Q: What about the MIC [7] of the same compound?
A: 4 µg/mL (≈ 8.34 µM)

Q: And the Drug metabolism [8]?
A: Metabolite_Notdetected

Q: What about the Activity [9] of the same compound?
A: Active

Q: And the Activity [10]?
A: inactive

Q: And the Activity [11]?
A: inactive

Q: And the MBC [12]?
A: 1 µg/mL (≈ 2.09 µM)

Q: What about the MIC [13] of the same compound?
A: 1 µg/mL (≈ 2.09 µM)

Q: For `O=C(OCc1ccc([N+](=O)[O-])cc1)c1cn(C2CC2)c2cc(N3CCNCC3)c(F)cc2c1=O`, which Activity [1] is on record?
A: inactive

Q: What about the MBC [14] of the same compound?
A: > 128 µg/mL

Q: And the “log(activity)” value [15]?
A: 2

Q: And the Drug metabolism [16]?
A: Metabolite_Notdetected

Q: And the MIC [5]?
A: 1 µg/mL (≈ 2.14 µM)

Q: And the MBC [6]?
A: 2 µg/mL (≈ 4.29 µM)

Q: And the MIC [7]?
A: 0.063 µg/mL (≈ 0.135 µM)

Q: And the Retention_time [17]?
A: 4.7 min

Q: What about the MIC [18] of the same compound?
A: 16 µg/mL (≈ 34.3 µM)

Q: What about the Drug metabolism [19] of the same compound?
A: Metabolite_Detected

Q: What about the “fold change (FC)” value [20] of the same compound?
A: 16

Q: And the Drug metabolism [8]?
A: Metabolite_Detected

Q: And the Drug metabolism [21]?
A: Metabolite_Notdetected

Q: And the Activity [22]?
A: Active

Q: What about the Activity [11] of the same compound?
A: Active

Q: What about the MBC [12] of the same compound?
A: 1 µg/mL (≈ 2.14 µM)

Q: And the MIC [13]?
A: 0.5 µg/mL (≈ 1.07 µM)

Q: Which results are given for `O=C(O)c1cn(C2CC2)c2cc(N3CCNCC3)c(F)cc2c1=O` [CIPROFLOXACIN]?
A: MBC [14]: 0.5 µg/mL (≈ 1.51 µM); MBC [6]: 0.015 µg/mL (≈ 0.0453 µM); MIC [18]: 0.25 µg/mL (≈ 0.754 µM); Activity [11]: Active; MBC [12]: 0.004 µg/mL (≈ 0.0121 µM)

Q: For `[N-]=[N+]=Nc1ccc(COC(=O)N2CCN(c3cc4c(cc3F)c(=O)c(C(=O)OCc3ccc([N+](=O)[O-])cc3)cn4C3CC3)CC2)cc1`, which Activity [1] is on record?
A: inactive

Q: And the MBC [14]?
A: > 128 µg/mL

Q: What about the MIC [2] of the same compound?
A: 0.25 µg/mL (≈ 0.39 µM)

Q: And the “log(activity)” value [15]?
A: 2

Q: And the MIC [4]?
A: 2 µg/mL (≈ 3.12 µM)

Q: And the MIC [5]?
A: > 16 µg/mL

Q: What about the MBC [6] of the same compound?
A: > 128 µg/mL

Q: What about the MIC [7] of the same compound?
A: > 16 µg/mL

Q: And the Retention_time [17]?
A: 15.2 min

Q: What about the MIC [18] of the same compound?
A: > 128 µg/mL

Q: What about the Retention_time [23] of the same compound?
A: 2.2 min

Q: What about the Drug metabolism [24] of the same compound?
A: Metabolite_Detected

Q: And the Activity [22]?
A: Active

Q: And the Activity [10]?
A: Active

Q: And the Activity [11]?
A: inactive

Q: What about the MBC [12] of the same compound?
A: 32 µg/mL (≈ 49.9 µM)

Q: And the MIC [13]?
A: 32 µg/mL (≈ 49.9 µM)

Q: For `[N-]=[N+]=Nc1ccc(COC(=O)N2CCN(c3cc4c(cc3F)c(=O)c(C(=O)O)cn4C3CC3)CC2)cc1`, which Activity [1] is on record?
A: inactive

Q: What about the MBC [14] of the same compound?
A: > 128 µg/mL

Q: And the “log(activity)” value [15]?
A: 2

Q: What about the “fold change (FC)” value [25] of the same compound?
A: 16

Q: What about the Activity [3] of the same compound?
A: Active

Q: And the MIC [4]?
A: 0.063 µg/mL (≈ 0.124 µM)

Q: What about the MIC [5] of the same compound?
A: 1 µg/mL (≈ 1.97 µM)

Q: And the MBC [6]?
A: 2 µg/mL (≈ 3.95 µM)

Q: What about the Retention_time [17] of the same compound?
A: 12.4 min

Q: What about the Activity [26] of the same compound?
A: inactive

Q: And the MIC [18]?
A: 4 µg/mL (≈ 7.9 µM)

Q: What about the MBC [12] of the same compound?
A: 0.5 µg/mL (≈ 0.987 µM)

Q: What about the MIC [13] of the same compound?
A: 0.5 µg/mL (≈ 0.987 µM)
